From patent publication US20140162974A1, “METHODS FOR MODULATION OF PHOSPHORUS AND FGF23” (Luitpold Pharmaceuticals, Inc., priority 2012, published 2014)

Assays:
[1] = VIT-30 safety: composite cardiovascular endpoint and adverse events; type: in vivo
Method: Study visits were on Days 0, 3, 7, 10, 14, 28, 56, and 120. A phone assessment occurred on Day 90.
The Venofer Group received 5 doses of Venofer, 200 mg for a total dose of 1,000 mg.
For Venofer, subjects received, as an IV push injection over 2 to 5 minutes, 200 mg on Days 0, 7, and 14 with 2 additional doses given: 1 between Days 0 and 7 and the other between Days 7 and 14 (i.e., for a total of 5 doses [1,000 mg]).
For safety, the primary measure was the proportion of subjects experiencing treatment-emergent adverse event included in the primary composite safety endpoint. Treatment-emergent events included events that started on or after the first dose of randomized treatment. The composite safety endpoint included: deaths due to any cause; nonfatal myocardial infarction; nonfatal stroke; unstable angina requiring hospitalization; congestive heart failure requiring hospitalization or medical intervention; arrhythmias; protocol-defined hypertensive events; and protocol-defined hypotensive events. These events were adjudicated in a blinded fashion. Supportive safety measures included: proportion of subjects who died (all cause mortality); time to first event comprising the primary composite safety endpoint; proportion of subjects reporting treatment-emergent adverse events, overall and related; proportion of subjects reporting treatment-emergent serious adverse events, overall and related; incidence of treatment-emergent potentially clinically significant (PCS) clinical laboratory values; and incidence of treatment-emergent PCS vital sign values.
The Safety Population consisted of all subjects who received a dose of randomized treatment. All safety analyses were performed with the Safety Population.
Safety assessments were summarized for the Safety Population unless stated otherwise. Subjects were analyzed under the treatment actually received.
The precision of the estimated treatment group difference was measured by the width of the 95% CI.
The number and percent of subjects who reported treatment-emergent adverse events were summarized for each treatment group. A treatment-emergent adverse event was an event that began after receipt of randomized treatment.
The adverse event profile was characterized with severity (as graded by Version 3.0 of the NCI CTCAE) and relationship (unrelated and related) to study drug. Related adverse events were events that were possibly or probably related to treatment in the Investigator's judgment. Events with unknown severity or relationship were counted as unknown.
The number and percent of subjects who reported treatment-emergent serious adverse events were similarly summarized for each treatment group. The number and percent of subjects who reported treatment-emergent adverse events resulting in discontinuation of study drug were similarly summarized for each treatment group.
Time to the first adverse event comprising the primary composite safety endpoint was summarized with the Kaplan-Meier approach. […] The log-rank statistic were used to compare time-to-event curves between treatment groups and a 95% CI of the hazard ratio was calculated with a Cox proportional hazards model.

[2] = Example 3 trial: adverse events; type: in vivo, human
Method: Study visits were on Days 0 (when iron was infused), 1 (24 hours after iron infusion), 7, 14, and 35. The primary objectives were to determine the effect of iron deficiency on cFGF23 and iFGF23 levels and the effect of intravenous iron on iFGF23 and cFGF23 levels.
Randomization occurred centrally via a fax-based system. […] The complete dose was infused over 15 minutes on day 0. […] An initial test dose of 25 mg was administered slowly over 5 minutes.
Laboratory testing of blood and three-hour urine collections was performed at the screening visit and on study days 0 (when iron was infused), 1 (24 hours after iron infusion), 7, 14, and 35 (see e.g., FIG. 2A). Any subject who experienced a reduction in serum phosphate below the normal range after day 0 underwent additional phosphate measurements at 14 day intervals following day 35 until the level returned to the normal reference range. Safety evaluations of all subjects included ascertainment of adverse events, physical examinations at all study visits, and laboratory assessments. Any subject who withdrew from the study received a follow-up phone call to ascertain adverse events 30 days after they received study drug.
The pre-specified primary endpoints were changes in blood and urine markers of phosphate and bone metabolism among the evaluable population, defined as those subjects with baseline and at least one post-randomization set of FGF23 and blood and urinary phosphate levels. Secondary endpoints included the proportion of subjects achieving a hemoglobin increase […] anytime between baseline and day 35, and the change from baseline to highest hemoglobin, ferritin, and TSAT anytime during the 35-day study period. Additional safety endpoints included incidence, severity, and seriousness of adverse events, and incidence of treatment-emergent abnormal clinical laboratory values in the safety population, defined as all subjects who received the study drug regardless of subsequent laboratory testing.
The number and proportion of subjects who experienced an adverse event in the safety population was summarized and rates between the iron treatment groups using Fisher's exact test were compared for the categorical safety endpoints. Analyses were conducted using SAS version 9 (Cary, N.C.). All statistical tests were 2-tailed and p values<0.05 were considered statistically significant.

[3] = In vitro and in vivo mutagenicity tests
dextran antibodies = test: Dextran antigenicity test
Source text: FCM can mimic physiologically occurring ferritin. FCM is metabolized by the glycolytic pathway.

## polynuclear iron (III)-hydroxide 4(R)-(poly-(1→4)-O-α-glucopyranosyl)-oxy-2(R),3(S),5(R),6-tetrahydroxy-hexanoate [FCM]
[1]; 2 injections of 750 mg
  tolerability: well tolerated
[1]; 10 subjects
  subjects who discontinued the study or study drug subsequent to a protocol-defined hypertensive event: 10.5%
[1]; Cox proportional hazards
  hazard ratio (FCM versus Venofer) excluding protocol-defined hypertensive and hypotensive events: 1.017
  hazard ratio (FCM versus Venofer) for death due to any cause, nonfatal myocardial infarction, or nonfatal stroke: 0.685
[1]; component of primary composite safety endpoint
  protocol-defined hypertensive events: 7.45%
[1]; in vivo
  drug related treatment emergent adverse event: dizziness: 2.4%
  drug related treatment emergent adverse event: flushing: 3.0%
  drug related treatment emergent adverse event: hypertension: 4.6%
  drug related treatment emergent adverse event: nausea: 8.6%
  drug related treatment emergent adverse event: vomiting: 2.0%
  serious adverse event: cardiac failure congestive: 2.4%
  subjects prematurely discontinued from study drug due to adverse events: 2.6%
  subjects with Grade 3 treatment emergent adverse events: 12.9%
  subjects with Grade 4 treatment emergent adverse events: 4.7%
  subjects with Grade 5 (fatal) treatment emergent adverse events: 1.2%
  subjects with adjudicated events of death due to any cause, nonfatal myocardial infarction, or nonfatal stroke: 1.88%
  subjects with adverse event that resulted in discontinuation from the study: 2.4%
  subjects with at least 1 serious adverse event: 15.8%
  subjects with at least 1 treatment emergent adverse event: 65.4%
  treatment emergent adverse event: hypertension: 10.7%
  treatment emergent adverse event: nausea: 13.5%
[1]; possibly or probably related
  subjects with at least 1 drug related treatment emergent adverse event: 23.4%
[2]
  subjects who experienced one or more adverse events: 68%
  subjects with adverse events considered to be related to study drug: 32%
[2]; p=0.008 between groups
  adverse event: reduced serum phosphate noted by subjects' physicians: 32%
[2]; safety population
  Discontinuation from study due to adverse event, n (%): 2 (8%) n (%)
  Patients experiencing one or more adverse events related to study drug, n (%): 8 (32%) n (%)
  Patients experiencing one or more adverse events, n (%): 17 (68%) n (%)
  Patients experiencing one or more serious adverse events, n (%): 0 (0%) n (%)
[3]
  clastogenicity, mutagenicity, chromosomal damage or bone marrow cell toxicity: no evidence
Dextran antibodies
  specific responses in a dextran antigenicity test: no specific responses
